# Data as given in patent US12435044B2, “Pyridazinone herbicides and pyridazinone intermediates used to prepare a herbicide” (FMC Corporation, priority 2018, dated 2025).
# Legend:
# Assay type in all cases: in vivo
# [1] = test system: giant foxtail (SETFA; Setaria faberi); assay: Test I pre-/postemergence, mixtures of Cpd. No. 20 with saflufenacil or pyroxasulfone; details: for Plant response rating (0 to 100 scale): SETFA
# From the text: (§1) This test evaluated the effect of mixtures of Cpd. No. 20 with saflufenacil or pyroxasulfone on several plant species. Seeds of plant species selected from corn (ZEAMD; Zea mays, cv. ‘Pioneer 1184’), soybean (GLXMA; Glycine max, cv. Pioneer 35T58), giant foxtail (SETFA; Setaria faberi), palmer amaranth (AMAPA; Amaranthus palmeri), common waterhemp (AMATU; Amaranthus rudis), mare's tail (ERICA; Conyza canadensis), and common ragweed (AMBEL; Ambrosia artemisiifolia) were planted in pots containing Tama Silt Loam soil and treated preemergence with a directed soil spray using test chemicals formulated in a non-phytotoxic solvent mixture which included a surfactant.
# (§2) At the same time, plants selected from these crop and weed species were planted in pots containing Redi-Earth® planting medium (Scotts Company, 14111 Scottslawn Road, Marysville, Ohio 43041) comprising spaghnum peat moss, vermiculite, wetting agent and starter nutrients and treated postemergence with test chemicals formulated in the same manner. Plants ranged in height from 2 to 10 cm and were in the one- to two-leaf stage for the postemergence treatment. Treated plants and untreated controls were maintained in a greenhouse for approximately 14-21 d, after which time all treated plants were compared to untreated controls and visually evaluated for injury. Plant response ratings, summarized in Tables 11 to 14, are based on a 0 to 100 scale where 0 is no effect and 100 is complete control. A dash (-) response means no test result. Test results are presented as a mean of 4 reps.
# [2] = test system: corn (ZEAMD; Zea mays, cv. ‘Pioneer 1184’); assay: as above; details: for Plant response rating (0 to 100 scale): ZEAMD
# From the text: as §1, §2
# [3] = test system: common ragweed (AMBEL; Ambrosia artemisiifolia); assay: as above; details: for Plant response rating (0 to 100 scale): AMBEL
# From the text: as §1, §2
# [4] = test system: giant foxtail (SETFA; Setaria faberi); assay: Test of Tables L1 to L3, postemergence, mixtures of Cpd. No. 20 with benoxacor, isoxadifen-ethyl, or cloquintocet-mexyl; details: for Plant response rating (0 to 100 scale) SETFA: approx. 14 d
# From the text: This test evaluated the effect of mixtures of Cpd. No. 20 with benoxacor, isoxadifen-ethyl, or cloquintocet-mexyl on several plant species. Seeds of plant species selected from corn (ZEAMD; Zea mays, cv. ‘Pioneer 1184’), soybean (GLXMA; Glycine max, cv. Pioneer 35T58), winter wheat (TRZAW; Triticum aetivum, cv. Arezzo), rice (ORYSS; Oryza sativa, cv. M202), and giant foxtail (SETFA; Setaria faberi) were planted in pots containing Redi-Earth® planting medium (Scotts Company, 14111 Scottslawn Road, Marysville, Ohio 43041) comprising spaghnum peat moss, vermiculite, wetting agent and starter nutrients and treated postemergence using test chemicals formulated in a non-phytotoxic solvent mixture which included a surfactant. Plants ranged in height from 7 to 10 cm and were in the one- to two-leaf stage for the postemergence treatment. Treated plants and untreated controls were maintained in a greenhouse for approximately 14 d, after which time all treated plants were compared to untreated controls and visually evaluated for injury. Plant response ratings, summarized in Tables L1 to L3, are based on a 0 to 100 scale where 0 is no effect and 100 is complete control. A dash (-) response means no test result. Test results are presented as a mean of 4 reps.
# [5] = test system: waterhemp_RES2, (ALS & HPPD resistant common waterhemp, Amaranthus rudis); assay: Test E postemergence greenhouse test
# From the text: (§3) Seeds of plant species selected from corn (Zea mays), soybean (Glycine max), velvetleaf (Abutilon theophrasti), lambsquarters (Chenopodium album), poinsettia, wild (Euphorbia heterophylla), pigweed, palmer (Amaranthus palmeri), waterhemp (common waterhemp, Amaranthus rudis), surinam grass (Brachiaria decumbens), crabgrass, large (Digitaria sanguinalis), crabgrass, Brazil (Digitaria horizontalis), panicum, fall (Panicum dichotomiflorum), foxtail, giant (Setaria faberii), foxtail, green (Setaria viridis), goosegrass (Eleusine indica), johnsongrass (Sorghum halepense), ragweed (common ragweed, Ambrosia elatior), barnyardgrass (Echinochloa crus-galli), sandbur (southern sandbur, Cenchrus echinatus), arrowleaf sida (Sida rhombifolia), ryegrass, Italian (Lolium multiflorum), dayflower, VA (Virginia (VA) dayflower, Commelina virginica), field bindweed (Convolvulus arvensis), morningglory (Ipomoea coccinea), horseweed (Conyza canadensis), kochia (Kochia scoparia), nutsedge, yellow (Cyperus esculentus) and hairy beggarticks (Bidenspilosa), were planted into a silt loam soil and treated preemergence with test chemicals formulated in a non-phytotoxic solvent mixture which included a surfactant.
# (§4) At the same time, plants selected from these crop and weed species and also waterhemp_RES1, (ALS & Triazine resistant common waterhemp, Amaranthus rudis), and waterhemp_RES2, (ALS & HPPD resistant common waterhemp, Amaranthus rudis) were planted in pots containing Redi-Earth® planting medium (Scotts Company, 14111 Scottslawn Road, Marysville, Ohio 43041) comprising spaghnum peat moss, vermiculite, wetting agent and starter nutrients were treated with postemergence applications of test chemicals formulated in the same manner. Plants ranged in height from 2 to 18 cm for postemergence treatments (1- to 4-leaf stage). Treated plants and controls were maintained in a greenhouse for 14 to 21 d, after which time all species were compared to controls and visually evaluated. Plant response ratings, summarized in Table E, are based on a scale of 0 to 100 where 0 is no effect and 100 is complete control. A dash (-) response means no test result.
# [6] = test system: waterhemp_RES1, (ALS & Triazine resistant common waterhemp, Amaranthus rudis); assay: Test E postemergence greenhouse test
# From the text: as §3, §4
# [7] = Preemergence, Cpd. No. 20 8 g a.i./ha alone
# [8] = preemergence, Cpd. No. 20 16 g a.i./ha alone
# [9] = preemergence, Cpd. No. 20 31 g a.i./ha alone
# [10] = preemergence, Cpd. No. 20 62 g a.i./ha alone
structure (smiles),measurement,setting,value
"Cc1ccc2ccc(C)c(-c3c(O)c(Cl)nn(C)c3=O)c2c1 [Cpd. No. 20, 6-chloro-4-(2,7-dimethyl-1-naphthalenyl)-5-hydroxy-2-methyl-3(2H)-pyridazinone]",Plant response rating (0 to 100 scale),[1]; [7],25
same,"SETFA plant response rating, 0 to 100 scale","[1]; postemergence, 8 g a.i./ha",55
same,"SETFA plant response rating, 0 to 100 scale","[1]; postemergence, 16 g a.i./ha",80
same,"SETFA plant response rating, 0 to 100 scale","[1]; postemergence, 31 g a.i./ha",76
same,"SETFA plant response rating, 0 to 100 scale","[1]; postemergence, 62 g a.i./ha",78
same,"SETFA plant response rating, 0 to 100 scale","[1]; preemergence, 8 g a.i./ha",25
same,"SETFA plant response rating, 0 to 100 scale","[1]; preemergence, 16 g a.i./ha",39
same,"SETFA plant response rating, 0 to 100 scale","[1]; preemergence, 31 g a.i./ha",84
same,"SETFA plant response rating, 0 to 100 scale","[1]; preemergence, 62 g a.i./ha",99
same,Plant response rating (0 to 100 scale),[1]; [8],39
same,Plant response rating (0 to 100 scale),[1]; [9],84
same,Plant response rating (0 to 100 scale),[1]; [10],99
same,Plant response rating (0 to 100 scale),[2]; [7],0
same,"ZEAMD plant response rating, 0 to 100 scale","[2]; postemergence, 8 g a.i./ha",0
same,"ZEAMD plant response rating, 0 to 100 scale","[2]; postemergence, 16 g a.i./ha",0
same,"ZEAMD plant response rating, 0 to 100 scale","[2]; postemergence, 31 g a.i./ha",0
same,"ZEAMD plant response rating, 0 to 100 scale","[2]; postemergence, 62 g a.i./ha",0
same,"ZEAMD plant response rating, 0 to 100 scale","[2]; preemergence, 8 g a.i./ha",0
same,"ZEAMD plant response rating, 0 to 100 scale","[2]; preemergence, 16 g a.i./ha",0
same,"ZEAMD plant response rating, 0 to 100 scale","[2]; preemergence, 31 g a.i./ha",0
same,"ZEAMD plant response rating, 0 to 100 scale","[2]; preemergence, 62 g a.i./ha",0
same,Plant response rating (0 to 100 scale),[2]; [8],0
same,Plant response rating (0 to 100 scale),[2]; [9],0
same,Plant response rating (0 to 100 scale),[2]; [10],0
same,Plant response rating (0 to 100 scale),[3]; [7],0
same,"AMBEL plant response rating, 0 to 100 scale","[3]; postemergence, 8 g a.i./ha",86
same,"AMBEL plant response rating, 0 to 100 scale","[3]; postemergence, 16 g a.i./ha",90
same,"AMBEL plant response rating, 0 to 100 scale","[3]; postemergence, 31 g a.i./ha",100
same,"AMBEL plant response rating, 0 to 100 scale","[3]; postemergence, 62 g a.i./ha",94
same,"AMBEL plant response rating, 0 to 100 scale","[3]; preemergence, 8 g a.i./ha",0
same,"AMBEL plant response rating, 0 to 100 scale","[3]; preemergence, 16 g a.i./ha",10
same,"AMBEL plant response rating, 0 to 100 scale","[3]; preemergence, 31 g a.i./ha",69
same,"AMBEL plant response rating, 0 to 100 scale","[3]; preemergence, 62 g a.i./ha",98
same,Plant response rating (0 to 100 scale),[3]; [8],10
same,Plant response rating (0 to 100 scale),[3]; [9],69
same,Plant response rating (0 to 100 scale),[3]; [10],98
same,"SETFA plant response rating, 0 to 100 scale",[4]; 125 g a.i./ha,84
same,"SETFA plant response rating, 0 to 100 scale",[4]; 250 g a.i./ha,88
same,"SETFA plant response rating, 0 to 100 scale",[4]; 375 g a.i./ha,90
same,Plant response rating (0 to 100 scale) SETFA,[4]; Cpd. No. 20 alone 125 g a.i./ha,84
same,Plant response rating (0 to 100 scale) SETFA,[4]; Cpd. No. 20 alone 250 g a.i./ha,88
same,Plant response rating (0 to 100 scale) SETFA,[4]; Cpd. No. 20 alone 375 g a.i./ha,90
same,"Plant response rating, Waterhemp_RES2",[5]; 16 g ai/ha,15
same,"Plant response rating, Waterhemp_RES2",[5]; 31 g ai/ha,40
same,"Plant response rating, Waterhemp_RES2",[5]; 62 g ai/ha,60
same,"Plant response rating, Waterhemp_RES2",[5]; 125 g ai/ha,70
same,"Plant response rating, Waterhemp_RES1",[6]; 16 g ai/ha,75
same,"Plant response rating, Waterhemp_RES1",[6]; 31 g ai/ha,90
same,"Plant response rating, Waterhemp_RES1",[6]; 62 g ai/ha,80
same,"Plant response rating, Waterhemp_RES1",[6]; 125 g ai/ha,95
